The values that follow come from patent publication EP2345639A1, “Cyclic hydroxylamine derivatives, their preparation and use as antioxidants” (ABIOGEN PHARMA S.p.A., priority 2009, dated 2011).

Each structure is given as a SMILES string. Some results are limits rather than exact numbers.

The nature of data set [1]: Brain-to-plasma concentration ratio in mice. The data set is classed as in vivo, Female CD-1 mice. The note with it: female, CD-1, mouse, ip, 25 mg/kg intraperitoneal, area under the curve of brain and plasma concentrations 0 to 60 minutes, read-out: B/P ratio.
Procedure: The ability of the compounds of the invention to penetrate the brain was investigated by measuring their brain/plasma (B/P) ratio in mice following intraperitoneal administration.
Female CD-1 mice were used (n=3 for each time period) and received the compounds of the invention by intraperitoneal administration, in 25 mg/kg doses in a 0.5% NaHCO3 buffer (pH 8.3). At predefined intervals following said administration, i.e. 5, 15, 30 and 60 minutes, the mice were killed and both plasma and total brain tissue were collected.
Specifically, after anaesthesia with ether, the animals were bled by blood withdrawal from the abdominal aorta then immediately decapitated. The blood samples were collected into plasma separator tubes containing Li-Heparin as anticoagulant and centrifuged. The resulting plasma was then stored at -20 °C. The brain was rapidly removed from the cranium and weighed, subsequently frozen and stored at -20 °C before treatment by homogenization and HPLC analysis.
The plasma was thawed and mixed with an equal volume of the extraction solution.
1 ml of solution was then extracted by adding 20 µl of 70% HClO4, then centrifuged at 15,500g for 5 minutes and injected into the HPLC.
Each brain was thawed and homogenized with the extraction solution to provide a final composition of 4 ml/1g of tissue by means of an Ultra-Turrax blender and sonicated for 5 minutes. After centrifugation of the homogenate at 15,500g for 5 minutes, the resulting solution was treated with HClO4, as indicated for the plasma. Specific chromatographic conditions had been developed for each analyte, the calibration curve being constructed for plasma and brain homogenate.
The nature of data set [2]: Acid dissociation constants (pKa) by titration. The note with it: pH at semi-neutralization point of titration with 0.1 N NaOH or HCl. The data set is classed as physicochemical. The method, then: The following equipment was used during the implementation of all the examples: • for melting point determination a Buchi B-540 instrument was used; • the pKa is the pH at the semi-neutralization point of titration using a Mettler Toledo DL-50 instrument with a 0.1 N NaOH or HC! solution; • the ^1H-NMR spectra were recorded at 300 MHz and the ^13C-NMR spectra were recorded at 75 MHz using a Varian Unity 300 instrument; • spectrophotometric measurements were carried out using a Lambda Perkin Elmer 15 UV/Vis spectrophotometer for the DPPH assay and a Wallac Victor 1420 multilabel counter spectrophotometer.

The test system of data set [3] is C6 cells (rat glioma) and BAEC cells (bovine aortic endothelial). Kind of data set: In vitro inhibition of CHP-induced oxidative stress (DCF fluorescence). The class given is cell-based. The note with it: 500 µM CHP, 4, 20, 100 and 500 µM compound, 30 minutes; depending on the concentrations and cell line. The method, then: The method used was essentially the one reported by Rüweler M. et al. ("Inhibition of peroxide-induced radical generation by plant polyphenols in C6 astroglioma cells" (2008) Toxicol in vitro 22, 1377-81), with a few minor modifications.
The cells were seeded in phenol-red free DMEM (Sigma Aldrich) into 96-well plates with 5% FBS and 20 mM HEPES at a density of 40,000 cells/well. After 48 hours, the medium was substituted by HBSS (Hanks' Balanced Salt Solution, Sigma) containing 10 µM of dihydro-2',7'-dichlorofluorescein diacetate (H2DCF-DA, Sigma Aldrich) and incubated in darkness for 30 minutes at 37 °C, in order to load the cells with fluorescent dye. H2DCF-DA was hydrolyzed enzymatically by the intracellular esterases to form non-fluorescent H2DCF, which was then rapidly oxidized to form 2',7'-dichlorofluorescein (DCF) being highly fluorescent in the presence of reactive species (RS). The intensity of DCF fluorescence is directly proportional to the amount of RS formed.
After carrying out two washes, the cells were exposed to 500 µM of CHP and various concentrations (4, 20, 100 and 500 µM) of the compounds of the invention for 30 minutes at 37 °C. Fluorescence was then measured, after cell washing, by a microplate reader at an excitation wavelength of 485 nm and an emission wavelength of 535 nm.
Six wells per plate per concentration of test composition (compound + CHP) and per control (HBSS without CHP) were measured and 12 wells were used as reference for CHP-induced stress. In addition, each 96-well plate contained 6 wells that received the highest concentration of the tested compounds without CHP, to investigate whether the compounds of the invention alone were able to induce cellular radical formation.
When using this assay, it should be borne in mind that DCF fluorescence is a generalized indicator of oxidative stress rather than of any particular reactive species, i.e. it is not a direct assay for H2O2 or other reactive species (Halliwell B, Whiteman M. (2004) "Measuring reactive species and oxidative damage in vivo and in cell culture: how should you do it and what do the results mean?" Br. J. Pharmacol. 142 231-255). Therefore, when an increase in DCF fluorescence induced by exposure of cells to CHP was measured, as was carried out in these assays, it was not possible to deduce which reactive species was responsible. Inhibition of CHP-induced fluorescence was evaluated by means of different concentrations of the compounds of the invention and comparative compounds such as Trolox and edaravone.

Data set [4] has as its system female CD-1 mice. The data set can be described thus: Acute toxicity study, intraperitoneal, single dose. The note with it: in vivo. The method, then: This study was carried out with the purpose of investigating the toxicity of a single dose of the listed compounds administered to ICR (CD-1) female mice. According to the current OECD guideline no.
The mice used were all female and were treated by intraperitoneal injection administration. The animals were observed individually and regularly for the first 4 hours and within 24 hours after administration, and then twice a day for the whole observation period. As soon as the animals were stabilized, observations at the weekend were undertaken once only during the day.
The evaluated parameters included the survival, body weight development, variations in skin and fur, changes in ocular, conjunctival and buccal mucous membranes, changes in activities of the respiratory, circulatory, autonomous and central nervous systems, changes in somatomotor activity and in behaviour.
Any appearance of tremors, convulsions, salivation, diarrhea, lethargy, drowsiness and coma were attentively and regularly monitored. At the end of the observation period, a post-mortem was carried out on all the animals.

`CC1(C)CC(=O)C(C2CCCCN2O)C(=O)C1` (centres unmarked) [(3), 2-(1-hydroxypiperidin-2-yl)-5,5-dimethylcyclohexane-1,3-dione]: the Kp in data set [1] was above 0.1. Also, in data set [2], the pKa1 stood at 3.47 and the pKa2 turned out to be 6.92.

Turning to `CC1(C)CC(=O)C(C2COCCN2O)C(=O)C1` (centres unmarked) [(4), 2-(4-hydroxymorpholin-3-yl)-5,5-dimethylcyclohexane-1,3-dione], the “Inhibition of CHP-induced fluorescence” value in data set [3] is recorded as “effective”. The Kp in data set [1] was above 0.1. Also, in data set [2], the pKa1 came out at 2.28 and the pKa2 is given as 6.15. The toxic effect result in data set [4] (Example 23) is recorded as “no toxic effect”.

Consider `O=C1CC(c2ccccc2)CC(=O)C1C1COCCN1O` (centres unmarked) [(5), 2-(4-hydroxymorpholin-3-yl)-5-phenylcyclohexane-1,3-dione], for which the Kp in data set [1] is above 0.1. In data set [2], the pKa1 worked out at 2.71 and the pKa2 was determined as 6.44. For the same molecule, in data set [4] (mouse), the toxic effect result is listed as “no toxic effect”.

With `O=C1CCC(=O)C1C1COCCN1O` (centres unmarked) [(7), 2-(4-hydroxymorpholin-3-yl)-cyclopentane-1,3-dione], in data set [1], the Kp is above 0.1. In data set [2], this molecule showed a pKa1 of 2.32 and a pKa2 of 4.98.

Regarding `O=C1c2ccccc2C(=O)C1C1COCCN1O` (centres unmarked) [(8), 2-(4-hydroxymorpholin-3-yl)-2H-indene-1,3-dione], in data set [3], the “Inhibition of CHP-induced fluorescence” value is reported as “effective”. In addition, in data set [2], the pKa1 is recorded as 2.17 and the pKa2 came to 5.98. For the same molecule, in data set [4] (Example 23), the toxic effect entry is recorded as “no toxic effect”.

Take `O=c1oc2ccccc2c(O)c1C1COCCN1O` (centres unmarked) [(10), 4-hydroxy-3-(4-hydroxymorpholin-3-yl)-2H-chromen-2-one]: the Kp in data set [1] is above 0.1. In data set [2], this molecule returned a pKa1 of 2.70 and a pKa2 of 6.14. The toxic effect result in data set [4] (Example 23) is “no toxic effect”.

Regarding `CC1=NN(c2ccccc2)C(=O)C1C1COCCN1O` (centres unmarked) [(11), 4-(4-hydroxymorpholin-3-yl)-3-methyl-1-phenyl-1H-pyrazol-5(4H)-one], the “Inhibition of CHP-induced fluorescence” value in data set [3] is reported as “effective”. In addition, in data set [1], the Kp is above 0.1. For the same molecule, in data set [2], the pKa1 came to 3.31 and the pKa2 is listed as 6.92.

As to `CC1=NN(c2ccccc2)C(=O)C1` [edaravone, reference compound], the “Inhibition of CHP-induced fluorescence” value in data set [3] is on record as 10-50%. Also, the Kp in data set [1] came to 0.123.
